Tests used:
[1] = target: T1, 11-beta-hydroxysteroid dehydrogenase 1 (Homo sapiens, UniProt P28845); assay: Inhibition of 11beta-HSD1 (unknown origin) using 3H-cortisone as substrate by scintillation proximity assay
[2] = target: T1, 11-beta-hydroxysteroid dehydrogenase 1; assay: Inhibition of 11beta-HSD1 in human PBMC cells using 3H-cortisone as substrate assessed as conversion of cortisone to cortisol by ELISA; assay type: cell-based
[3] = target: hERG (KCNH2) (Homo sapiens, UniProt Q12809); assay: Inhibition of human ERG expressed in CHO cells at 30 uM at -80 mV holding potential by automated patch clamp assay relative to control; assay type: toxicity, cell-based; conditions: CHO cells expressing human ERG
hERG (KCNH2), sequence (Q12809 whole entry): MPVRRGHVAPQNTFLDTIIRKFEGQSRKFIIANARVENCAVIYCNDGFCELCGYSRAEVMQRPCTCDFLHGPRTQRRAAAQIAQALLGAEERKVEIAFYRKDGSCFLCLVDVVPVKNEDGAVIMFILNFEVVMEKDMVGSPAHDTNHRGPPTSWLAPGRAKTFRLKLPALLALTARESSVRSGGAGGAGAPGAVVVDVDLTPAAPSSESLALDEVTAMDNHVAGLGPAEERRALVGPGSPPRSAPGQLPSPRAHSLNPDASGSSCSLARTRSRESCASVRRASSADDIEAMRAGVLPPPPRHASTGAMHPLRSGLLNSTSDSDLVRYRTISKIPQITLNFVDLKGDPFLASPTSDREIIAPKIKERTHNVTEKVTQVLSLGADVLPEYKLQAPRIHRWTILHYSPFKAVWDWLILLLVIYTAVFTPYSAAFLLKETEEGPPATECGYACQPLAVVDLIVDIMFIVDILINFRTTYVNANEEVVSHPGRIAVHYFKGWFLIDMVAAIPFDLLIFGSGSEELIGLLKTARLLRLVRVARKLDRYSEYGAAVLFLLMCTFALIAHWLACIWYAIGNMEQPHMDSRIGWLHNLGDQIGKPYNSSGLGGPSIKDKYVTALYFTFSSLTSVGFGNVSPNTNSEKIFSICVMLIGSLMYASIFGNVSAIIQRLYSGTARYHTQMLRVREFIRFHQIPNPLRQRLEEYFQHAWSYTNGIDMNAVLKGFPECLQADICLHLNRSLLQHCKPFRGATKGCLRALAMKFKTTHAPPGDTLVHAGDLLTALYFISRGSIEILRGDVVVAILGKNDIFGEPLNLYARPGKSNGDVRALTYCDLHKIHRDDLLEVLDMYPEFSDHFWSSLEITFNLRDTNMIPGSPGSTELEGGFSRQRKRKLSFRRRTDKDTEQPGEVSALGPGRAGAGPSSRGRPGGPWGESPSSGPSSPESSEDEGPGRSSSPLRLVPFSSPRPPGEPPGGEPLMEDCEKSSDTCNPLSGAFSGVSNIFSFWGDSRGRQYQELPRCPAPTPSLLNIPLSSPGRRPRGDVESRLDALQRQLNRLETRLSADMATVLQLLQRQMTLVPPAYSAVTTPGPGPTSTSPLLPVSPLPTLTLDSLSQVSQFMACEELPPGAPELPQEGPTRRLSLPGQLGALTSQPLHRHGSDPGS

[4] = target: T2, PXR (NR1I2) (Homo sapiens, UniProt O75469); assay: Activation of human PXR assessed as induction of PXR activity at 10 uM relative to control; conditions: read-out: Activity
T2 sequence (O75469 whole entry): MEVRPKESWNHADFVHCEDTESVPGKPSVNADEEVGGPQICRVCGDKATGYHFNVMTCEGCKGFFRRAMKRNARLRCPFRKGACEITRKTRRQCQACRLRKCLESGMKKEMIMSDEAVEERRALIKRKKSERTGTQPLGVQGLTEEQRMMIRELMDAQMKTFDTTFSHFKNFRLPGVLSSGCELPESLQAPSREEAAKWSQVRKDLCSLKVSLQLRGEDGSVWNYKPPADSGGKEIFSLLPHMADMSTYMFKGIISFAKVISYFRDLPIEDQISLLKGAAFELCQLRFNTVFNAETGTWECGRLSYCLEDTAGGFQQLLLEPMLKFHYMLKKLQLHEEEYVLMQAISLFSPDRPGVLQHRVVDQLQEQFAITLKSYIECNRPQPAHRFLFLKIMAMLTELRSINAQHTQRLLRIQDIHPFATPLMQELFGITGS

[5] = target: T3, PXR (NR1I2) (Rattus norvegicus, UniProt Q9R1A7); assay: Activation of rat PXR assessed as induction of PXR activity at 10 uM relative to control; conditions: read-out: Activity
T3 sequence (Q9R1A7 whole entry): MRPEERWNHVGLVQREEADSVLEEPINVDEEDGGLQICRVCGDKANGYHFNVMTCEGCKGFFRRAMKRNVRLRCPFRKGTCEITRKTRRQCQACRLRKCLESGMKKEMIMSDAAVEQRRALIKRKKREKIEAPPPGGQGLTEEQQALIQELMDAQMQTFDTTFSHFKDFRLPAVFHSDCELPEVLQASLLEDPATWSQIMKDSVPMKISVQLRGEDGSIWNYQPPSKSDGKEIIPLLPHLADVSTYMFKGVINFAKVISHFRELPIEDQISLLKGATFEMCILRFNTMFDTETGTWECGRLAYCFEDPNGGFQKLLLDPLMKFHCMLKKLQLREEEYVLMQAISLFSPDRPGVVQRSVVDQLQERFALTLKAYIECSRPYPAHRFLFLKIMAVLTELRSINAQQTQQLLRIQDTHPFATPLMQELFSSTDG

[6] = target: T1, 11-beta-hydroxysteroid dehydrogenase 1; assay: Inhibition of 11beta-HSD1 (unknown origin)

T1 sequence (P28845 whole entry): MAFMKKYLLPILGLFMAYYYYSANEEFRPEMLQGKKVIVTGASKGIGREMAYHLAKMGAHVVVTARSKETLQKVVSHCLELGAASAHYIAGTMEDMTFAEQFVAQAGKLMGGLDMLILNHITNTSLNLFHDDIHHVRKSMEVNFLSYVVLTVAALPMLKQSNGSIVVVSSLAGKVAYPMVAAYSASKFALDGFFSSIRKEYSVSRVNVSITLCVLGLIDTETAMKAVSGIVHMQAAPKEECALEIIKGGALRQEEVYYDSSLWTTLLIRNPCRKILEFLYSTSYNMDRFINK

Compound | IC50 [1] | IC50 [2] | activity at 10 µM [4] | activity at 10 µM [5] | IC50 [6] | inhibition at 30 µM [3]
O=C1N(C2CCCCC2)CCC12CCCN2CC1CCOC1 (stereo not drawn) | 0.46 µM |  |  |  |  | 
O=C1N(C2CCCCC2)CCC12CCCN2C1CCC1 (stereo not drawn) | > 1 µM |  |  |  |  | 
CC(C)CN1CCCC12CCN(C13CC4CC(CC(C4)C1)C3)C2=O (stereo not drawn) | 0.4 µM |  |  |  |  | 
CC(C1CC1)N1C[C@H](O)C[C@]12CCN(C1CCCCC1)C2=O (stereo partly drawn) | 0.4 µM | > 0.037 µM | 1% | 2% |  | -10%
O=C1N([C@H]2CC[C@H](O)CC2)CCC12CCCN2Cc1ccc(Cl)cc1 (stereo partly drawn) | 0.03 µM |  | 0.5% | 2% |  | 13%
O=C1N(c2ccccc2Cl)CCC12CCCN2CC1CC1 (stereo not drawn) | 0.5 µM |  |  |  |  | 
O=C(c1ccccn1)N1CCCC12CCN(C1CCCCC1)C2=O (stereo not drawn) | > 1 µM |  |  |  |  | 
O=C1N(C2CCCCC2)CCC12CCCN2Cc1ccccn1 (stereo not drawn) | 0.063 µM |  |  |  |  | 
O=C1N(C2CCCCC2)CC[C@]12C[C@@H](O)CN2CC1CCCC1 | 0.03 µM |  |  |  |  | 
O=C1N(C2CCCCC2)CC[C@]12C[C@@H](O)CN2CC1CCCCC1 | 0.015 µM | 0.007 µM | 9% | 14% |  | 8.1%
O=C1N(C23CC4CC(CC(C4)C2)C3)CCC12CCCN2Cc1ccccn1 (stereo not drawn) | 0.134 µM |  |  |  |  | 
CC(C1CCC1)N1C[C@H](O)C[C@]12CCN(C1CCCCC1)C2=O (stereo partly drawn) | 0.007 µM | 0.0039 µM | 4.5% | 9% |  | -15%
N#Cc1ccc(CN2CCCC23CCN(C2CCCCC2)C3=O)cc1 (stereo not drawn) | 0.029 µM |  |  |  |  | 
O=C(NC12CC3CC(CC(C3)C1)C2)[C@H]1CCCN1Cc1ccccn1 |  |  |  |  | 0.012 µM | 
O=C1N(C2CCCCC2)CCC12CCCN2CC1CC1 (stereo not drawn) | 0.134 µM |  |  |  |  | 
O=C1N(C2CCCCC2)CC[C@]12C[C@@H](O)CN2C1CCCC1 | 0.351 µM |  |  |  |  | 
O=C1N(C2CCCCC2)CCC12CCCN2Cc1ccc(C(F)(F)F)cc1 (stereo not drawn) | 0.007 µM |  | 80% | 12% |  | 27%
O=C1N(C23CC4CC(CC(C4)C2)C3)CCC12CCCN2CC1CCCC1 (stereo not drawn) | 0.051 µM |  |  |  |  | 
O=C1N(C2CCOCC2)CCC12CCCN2Cc1ccc(Cl)cc1 (stereo not drawn) | 0.045 µM |  |  |  |  | 
O=C1N(C2CCCCC2)CCC12CCCN2Cc1ccccc1C(F)(F)F (stereo not drawn) | 0.015 µM |  |  |  |  | 
O=C1N(C2CCCCC2)CCC12CCCN2CC1CCCC1 (stereo not drawn) | 0.036 µM |  |  |  |  | 
CC(C)N1C[C@H](O)C[C@]12CCN(C1CCCCC1)C2=O | > 1 µM | > 0.037 µM | -0.5% | -0.5% |  | 0%
O=C1N(C23CC4CC(CC(C4)C2)C3)CCC12CCCN2c1ccc(C(F)(F)F)cn1 (stereo not drawn) | > 1 µM |  |  |  |  | 
CC(C)CN1CCC[C@@H]1C(=O)NC1CCCCC1 |  |  |  |  | 0.009 µM | 
CC(C1CCCCC1)N1C[C@H](O)C[C@]12CCN(C1CCCCC1)C2=O (stereo partly drawn) | 0.005 µM | 0.0019 µM | 10% | 58% |  | 14%

Continued, in another order:

IC50 [1] | IC50 [2] | activity at 10 µM [4] | activity at 10 µM [5] | IC50 [6] | Compound | inhibition at 30 µM [3]
0.08 µM | > 0.037 µM |  |  |  | O=C1N(C2CCCCC2)CC[C@]12C[C@@H](O)CN2Cc1ccc(-c2ccc(F)cc2)nc1 | 
0.006 µM | 0.0062 µM | 42% | 16% |  | O=C1N(C2CCCCC2)CC[C@]12C[C@@H](O)CN2Cc1ccc(Cl)cc1 | 14%
0.227 µM | > 0.037 µM |  |  |  | CCNC(=O)c1ccc(-c2cccc(CN3C[C@H](O)C[C@]34CCN(C3CCCCC3)C4=O)c2)cn1 | 
0.018 µM | 0.035 µM |  |  |  | N#Cc1ccc(-c2ccc(CN3C[C@H](O)C[C@]34CCN(C3CCCCC3)C4=O)cn2)cc1 | 
0.999 µM | > 0.037 µM | 9.5% | 41% |  | CC1(O)CN(Cc2ccc(Cl)cc2)[C@@]2(CCN(C3CCCCC3)C2=O)C1 (stereo partly drawn) | 13%
0.007 µM |  | 18% | 10% |  | O=C1N(C2CCCCC2)CCC12C[C@@H](O)CN2Cc1ccc(Cl)cc1 (stereo partly drawn) | 27%
0.002 µM | 0.0051 µM | 48% | 123% |  | O=C1N(C2CCCCC2)CC[C@]12C[C@H](F)CN2Cc1ccc(Cl)cc1 | 52%
0.013 µM | 0.0095 µM |  |  |  | CNC(=O)c1ccc(-c2ccc(CN3C[C@H](O)C[C@]34CCN(C3CCCCC3)C4=O)cc2F)cn1 | 
> 1 µM | > 0.037 µM | 52% | 12% |  | O=C1N(C2CCCCC2)CC[C@@]12C[C@H](O)CN2Cc1ccc(Cl)cc1 | -4.3%
0.062 µM | > 0.037 µM |  |  |  | CCNC(=O)c1ccc(-c2cc(CN3C[C@H](O)C[C@]34CCN(C3CCCCC3)C4=O)ccc2F)cn1 | 
0.002 µM | 0.0059 µM | 14% | 24% |  | CNC(=O)c1ccc(-c2ccc(CN3C[C@@H](F)C[C@]34CCN(C3CCCCC3)C4=O)cc2)cn1 | 49%
0.003 µM | 0.0072 µM | -0.3% | -0.3% |  | CNC(=O)c1ccc(-c2ccc(CN3C[C@H](O)C[C@]34CCN(C3CCCCC3)C4=O)cc2)cn1 | -14%
0.035 µM |  |  |  |  | CN(C)C(=O)c1ccc(-c2ccc(CN3C[C@H](O)C[C@]34CCN(C3CCCCC3)C4=O)cc2)cn1 | 
0.005 µM | 0.0049 µM |  |  |  | CC(C)NC(=O)c1ccc(-c2ccc(CN3C[C@H](O)C[C@]34CCN(C3CCCCC3)C4=O)cc2F)cn1 | 
0.188 µM |  |  |  |  | N#Cc1cncc(-c2ccc(CN3C[C@H](O)C[C@]34CCN(C3CCCCC3)C4=O)cc2)c1 | 
0.008 µM |  | 46% | 22% |  | O=C1N(C2CCCCC2)CCC12CCCN2Cc1ccc(Cl)cc1 (stereo not drawn) | 45%
0.026 µM |  |  |  |  | O=C1N(C2CCCC2)CCC12CCCN2Cc1ccc(Cl)cc1 (stereo not drawn) | 
0.04 µM |  |  |  |  | O=C1N(C2CCCCC2)CCC12CCCN2Cc1cccc(C(F)(F)F)c1 (stereo not drawn) | 
0.23 µM |  |  |  |  | N#Cc1ccc(-c2ccc(CN3C[C@H](O)C[C@]34CCN(C3CCCCC3)C4=O)nc2)cc1 | 
0.035 µM |  |  |  |  | N#Cc1ccnc(-c2ccc(CN3C[C@H](O)C[C@]34CCN(C3CCCCC3)C4=O)cc2)c1 | 
0.007 µM |  |  |  |  | O=C1N(C2CCCCCC2)CCC12CCCN2Cc1ccc(Cl)cc1 (stereo not drawn) | 
0.015 µM | 0.021 µM | 56% | 28% |  | CCN1C[C@@H](O)C[C@]12CCN(C1CCCCC1)C2=O | 11%
0.023 µM |  | 13% | 31% |  | CCNC(=O)c1ccc(-c2ccc(CN3CCCC34CCN(C3CCCCC3)C4=O)cc2)cn1 (stereo not drawn) | 15%
0.092 µM | > 0.037 µM |  |  |  | N#Cc1cccc(-c2ccc(CN3C[C@H](O)C[C@]34CCN(C3CCCCC3)C4=O)cn2)c1 | 
0.009 µM | 0.017 µM |  |  |  | CNC(=O)c1ccc(-c2ccc(CN3C[C@H](O)C[C@]34CCN(C3CCCCC3)C4=O)c(F)c2)cn1 | 
0.007 µM | 0.0066 µM |  |  |  | O=C1N(C2CCCCC2)CC[C@]12C[C@@H](O)CN2Cc1ccc(-c2ccncc2)cc1 | 

— ChEMBL document CHEMBL5104129, “Discovery of a novel 2-spiroproline steroid mimetic scaffold for the potent inhibition of 11β-HSD1” (Bioorg Med Chem Lett, 2022)
